One assay concerns H4. The experiment in a line: Luminescence Cell-Based Dose Response HTS to Identify Activators of 5'UTR Stem-Loop Driven Prion Protein mRNA Translation in H4 Neuroglioblastoma Cells. [Related pubchem assays: 1829 (Project Summary), 1814 (Primary HTS)]. Format: functional. As to conditions: Homo sapiens.
Assay [1] addresses T1, C-C chemokine receptor type 6 (Homo sapiens, UniProt P51684).
T1 sequence (P51684 whole entry): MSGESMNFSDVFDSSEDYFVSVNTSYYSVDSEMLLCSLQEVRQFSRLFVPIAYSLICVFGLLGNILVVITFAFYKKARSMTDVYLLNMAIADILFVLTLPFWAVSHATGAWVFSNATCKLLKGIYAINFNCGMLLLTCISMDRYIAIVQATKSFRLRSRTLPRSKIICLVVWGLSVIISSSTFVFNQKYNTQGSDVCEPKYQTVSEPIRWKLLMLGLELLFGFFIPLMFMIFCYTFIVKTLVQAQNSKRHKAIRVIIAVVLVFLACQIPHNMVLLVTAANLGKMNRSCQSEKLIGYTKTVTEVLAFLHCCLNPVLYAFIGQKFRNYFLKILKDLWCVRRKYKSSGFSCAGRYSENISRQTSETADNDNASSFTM
The assay is described as follows: antagonism of CCR6 beta-arrestin recruitment – cell-based, luminescent beta-arrestin readout, dose response (AID 504728). Format: functional. In general terms: Activated receptors often draw arrestin, which recruitment assays turn into a signal.

In assay [2] the target is T2, Oxysterols receptor LXR-beta (Homo sapiens, UniProt P55055).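 Also: Cell-based luminescence dose-response assay of agonist activity at LXR, run as a confirmatory counterscreen to a daf-12 agonist screen; HEK293 cells with Gal4-LXR fusion and GAL4-driven luciferase reporter; agonist potency from rising luciferase signal of a Gal4-LXR reporter.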
T2 sequence (P55055 whole entry): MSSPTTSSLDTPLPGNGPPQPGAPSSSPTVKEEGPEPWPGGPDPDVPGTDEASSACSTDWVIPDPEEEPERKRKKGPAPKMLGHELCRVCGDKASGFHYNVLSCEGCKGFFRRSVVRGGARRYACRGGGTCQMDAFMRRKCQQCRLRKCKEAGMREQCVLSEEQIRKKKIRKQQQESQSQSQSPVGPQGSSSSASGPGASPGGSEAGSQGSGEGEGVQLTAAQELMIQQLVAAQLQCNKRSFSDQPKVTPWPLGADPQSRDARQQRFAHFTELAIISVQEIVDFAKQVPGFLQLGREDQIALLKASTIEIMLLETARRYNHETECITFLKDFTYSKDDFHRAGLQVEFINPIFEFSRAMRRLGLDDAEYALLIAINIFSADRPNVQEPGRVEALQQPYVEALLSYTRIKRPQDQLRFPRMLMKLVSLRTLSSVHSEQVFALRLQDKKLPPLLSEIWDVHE
Format: functional, cell-based.

Assay [3] can be described thus: Luminescence-based cell-based high throughput dose response assay to identify activators of the DAF-12 from the parasite S. stercoralis (ssDAF-12). Format: functional.
In assay [4] the test system is HEK293. The experiment in a line: inhibition of NOD1-driven NF-kB reporter – cell-based, luminescence, uHTS, primary screen (AID 1578). Format: functional. As to conditions: Homo sapiens.
The subject of assay [5] is HEK293. The assay is described as follows: cells. Format: functional, cell-based. The following applies: Homo sapiens.
In assay [6] the target is Serine/threonine-protein kinase pim-2 (Homo sapiens, UniProt Q9P1W9). Format: functional.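 Also: value comes from a broad kinase panel profiling study in which PIM2 was one of the panel members.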
Serine/threonine-protein kinase pim-2, sequence (Q9P1W9 whole entry, canonical isoform): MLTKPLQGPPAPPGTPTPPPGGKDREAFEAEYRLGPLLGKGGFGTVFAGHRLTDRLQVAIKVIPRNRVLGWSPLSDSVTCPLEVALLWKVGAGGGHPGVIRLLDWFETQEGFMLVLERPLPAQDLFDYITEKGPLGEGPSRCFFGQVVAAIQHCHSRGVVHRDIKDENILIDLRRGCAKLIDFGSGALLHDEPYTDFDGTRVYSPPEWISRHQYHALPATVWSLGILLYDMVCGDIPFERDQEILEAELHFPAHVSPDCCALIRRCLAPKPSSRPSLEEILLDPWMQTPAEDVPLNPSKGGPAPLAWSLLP
Assay [7] has as its target Casein kinase I isoform gamma-1 (Homo sapiens, UniProt Q9HCP0). Format: functional.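 Also: measured as the CSNK1G1 member of a kinome profiling panel.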
Assay [8] has as its target Protein-tyrosine kinase 6 (Homo sapiens, UniProt Q13882). Format: functional.
The target in assay [9] is Calcium/calmodulin-dependent protein kinase type II subunit delta (Homo sapiens, UniProt Q13557). Format: functional.
Assay [10] addresses Serine/threonine-protein kinase Nek2 (Homo sapiens, UniProt P51955). Format: functional.
Assay [11] concerns the target Ribosomal protein S6 kinase beta-1 (Homo sapiens, UniProt P23443). Format: functional.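 Also: measured as one member of a kinome-wide profiling panel.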
In assay [12] the target is Tyrosine-protein kinase receptor UFO (Homo sapiens, UniProt P30530). Format: functional.
The target of assay [13] is Protein kinase C iota type (Homo sapiens, UniProt P41743). Format: functional.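 Also: measured within a kinome-wide kinase panel, PRKCI as panel member.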
Protein kinase C iota type, sequence (P41743 whole entry): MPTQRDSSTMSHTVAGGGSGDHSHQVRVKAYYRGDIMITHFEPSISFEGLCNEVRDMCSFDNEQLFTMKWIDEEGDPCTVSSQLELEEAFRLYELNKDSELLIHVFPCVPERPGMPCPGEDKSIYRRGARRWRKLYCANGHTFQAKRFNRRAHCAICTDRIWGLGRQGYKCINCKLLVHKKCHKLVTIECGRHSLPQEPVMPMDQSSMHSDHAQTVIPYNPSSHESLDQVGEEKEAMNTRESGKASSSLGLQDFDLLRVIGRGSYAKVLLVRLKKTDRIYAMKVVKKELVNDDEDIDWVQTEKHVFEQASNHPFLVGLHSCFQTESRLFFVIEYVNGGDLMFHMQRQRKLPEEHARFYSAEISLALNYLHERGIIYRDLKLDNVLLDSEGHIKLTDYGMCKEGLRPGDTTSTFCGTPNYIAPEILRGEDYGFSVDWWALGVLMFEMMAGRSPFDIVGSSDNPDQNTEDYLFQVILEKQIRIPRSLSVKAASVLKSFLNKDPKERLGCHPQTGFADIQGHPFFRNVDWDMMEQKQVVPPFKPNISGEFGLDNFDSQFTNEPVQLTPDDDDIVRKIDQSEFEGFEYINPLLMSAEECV
Assay [14] addresses Vascular endothelial growth factor receptor 3 (Homo sapiens, UniProt P35916). Format: functional.
Assay [15] concerns the target cAMP-dependent protein kinase catalytic subunit alpha (Homo sapiens, UniProt P17612). Format: functional.
Assay [16] addresses Fibroblast growth factor receptor 1 (Homo sapiens, UniProt P11362). Format: functional.
The target in the next assay is Aurora kinase B (Homo sapiens, UniProt Q96GD4). Format: functional.
Aurora kinase B, sequence (Q96GD4 whole entry): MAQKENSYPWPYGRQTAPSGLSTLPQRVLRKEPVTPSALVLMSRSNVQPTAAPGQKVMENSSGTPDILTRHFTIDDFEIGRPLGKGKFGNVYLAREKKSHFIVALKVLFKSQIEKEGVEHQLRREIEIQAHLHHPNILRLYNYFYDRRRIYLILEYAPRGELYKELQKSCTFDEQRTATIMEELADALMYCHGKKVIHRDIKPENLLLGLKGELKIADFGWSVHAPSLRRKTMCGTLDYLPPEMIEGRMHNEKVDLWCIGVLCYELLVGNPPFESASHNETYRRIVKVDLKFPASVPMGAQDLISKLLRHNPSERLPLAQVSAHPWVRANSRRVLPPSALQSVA
The target of assay [17] is Mitogen-activated protein kinase kinase kinase kinase 4 (Homo sapiens, UniProt O95819). Format: functional.
The target of assay [18] is Cyclin-dependent kinase 1 (Homo sapiens, UniProt P06493). Format: functional.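 Also: Kinome-wide panel profiling, with the target listed as panel member CDC2.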
Assay [19] concerns the target Tyrosine-protein kinase ABL1 (Homo sapiens, UniProt P00519). Format: functional.
The target in assay [20] is Serine/threonine-protein kinase PLK3 (Homo sapiens, UniProt Q9H4B4). Format: functional.
Assay [21] concerns the target Serine/threonine-protein kinase D2 (Homo sapiens, UniProt Q9BZL6). Format: functional.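 Also: measured against PRKD2 as one member of a kinome-wide kinase profiling panel.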
In assay [22] the target is Delta-type opioid receptor (Homo sapiens, UniProt P41143). The assay is described as follows: HTS Image-Based Screen for Agonists of the DOR Receptor. [Related pubchem assays (depositor defined):AID1777, AID1786, AID2133]. Format: functional.
Delta-type opioid receptor, sequence (P41143 whole entry): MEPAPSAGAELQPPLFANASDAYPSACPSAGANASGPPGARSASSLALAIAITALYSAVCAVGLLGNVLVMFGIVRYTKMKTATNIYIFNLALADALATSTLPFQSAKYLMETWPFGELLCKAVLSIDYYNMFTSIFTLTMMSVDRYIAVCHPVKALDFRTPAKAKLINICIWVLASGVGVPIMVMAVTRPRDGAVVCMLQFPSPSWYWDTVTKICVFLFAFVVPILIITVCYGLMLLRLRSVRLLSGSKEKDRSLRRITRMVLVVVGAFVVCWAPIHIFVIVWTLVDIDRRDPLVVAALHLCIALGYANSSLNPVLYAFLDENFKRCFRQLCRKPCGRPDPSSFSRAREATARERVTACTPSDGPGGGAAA
The test system of a further assay is HeLa. The experiment in a line: Cytotoxicity counterscreen assay for transcriptional activators of heat shock protein 70 (Hsp70). [Related pubchem assays: 1203, 1252 ]. Format: functional. The following applies: Homo sapiens. (In general: The purpose of a counterscreen is to sort out artefacts and off-target activity.);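 also: cells exposed to compound for 16 hours before readout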

Active and inactive are the calls of the source.

Serine/threonine-protein kinase D2, sequence (Q9BZL6 whole entry): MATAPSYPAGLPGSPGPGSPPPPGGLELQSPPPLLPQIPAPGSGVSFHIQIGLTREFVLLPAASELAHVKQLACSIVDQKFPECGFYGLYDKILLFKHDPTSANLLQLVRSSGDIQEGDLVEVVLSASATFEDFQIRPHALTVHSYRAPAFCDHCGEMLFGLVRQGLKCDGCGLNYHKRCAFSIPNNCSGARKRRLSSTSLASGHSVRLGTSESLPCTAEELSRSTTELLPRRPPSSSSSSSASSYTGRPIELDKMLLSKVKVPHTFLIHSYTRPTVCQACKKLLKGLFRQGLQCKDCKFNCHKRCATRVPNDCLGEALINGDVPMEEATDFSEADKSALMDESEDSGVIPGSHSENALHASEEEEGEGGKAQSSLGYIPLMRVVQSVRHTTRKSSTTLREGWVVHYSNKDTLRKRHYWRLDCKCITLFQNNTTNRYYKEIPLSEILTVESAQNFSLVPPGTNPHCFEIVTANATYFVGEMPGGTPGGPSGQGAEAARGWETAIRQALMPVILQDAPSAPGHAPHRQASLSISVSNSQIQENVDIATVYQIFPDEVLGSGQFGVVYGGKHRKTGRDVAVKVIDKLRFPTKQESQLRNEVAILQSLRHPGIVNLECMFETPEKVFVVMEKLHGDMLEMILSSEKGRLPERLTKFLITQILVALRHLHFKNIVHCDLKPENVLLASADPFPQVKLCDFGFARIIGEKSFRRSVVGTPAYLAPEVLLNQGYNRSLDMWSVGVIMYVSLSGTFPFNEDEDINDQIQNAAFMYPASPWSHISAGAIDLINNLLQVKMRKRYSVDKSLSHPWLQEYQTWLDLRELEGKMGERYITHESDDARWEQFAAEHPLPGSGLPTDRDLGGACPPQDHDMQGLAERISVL
Fibroblast growth factor receptor 1, sequence (P11362 whole entry): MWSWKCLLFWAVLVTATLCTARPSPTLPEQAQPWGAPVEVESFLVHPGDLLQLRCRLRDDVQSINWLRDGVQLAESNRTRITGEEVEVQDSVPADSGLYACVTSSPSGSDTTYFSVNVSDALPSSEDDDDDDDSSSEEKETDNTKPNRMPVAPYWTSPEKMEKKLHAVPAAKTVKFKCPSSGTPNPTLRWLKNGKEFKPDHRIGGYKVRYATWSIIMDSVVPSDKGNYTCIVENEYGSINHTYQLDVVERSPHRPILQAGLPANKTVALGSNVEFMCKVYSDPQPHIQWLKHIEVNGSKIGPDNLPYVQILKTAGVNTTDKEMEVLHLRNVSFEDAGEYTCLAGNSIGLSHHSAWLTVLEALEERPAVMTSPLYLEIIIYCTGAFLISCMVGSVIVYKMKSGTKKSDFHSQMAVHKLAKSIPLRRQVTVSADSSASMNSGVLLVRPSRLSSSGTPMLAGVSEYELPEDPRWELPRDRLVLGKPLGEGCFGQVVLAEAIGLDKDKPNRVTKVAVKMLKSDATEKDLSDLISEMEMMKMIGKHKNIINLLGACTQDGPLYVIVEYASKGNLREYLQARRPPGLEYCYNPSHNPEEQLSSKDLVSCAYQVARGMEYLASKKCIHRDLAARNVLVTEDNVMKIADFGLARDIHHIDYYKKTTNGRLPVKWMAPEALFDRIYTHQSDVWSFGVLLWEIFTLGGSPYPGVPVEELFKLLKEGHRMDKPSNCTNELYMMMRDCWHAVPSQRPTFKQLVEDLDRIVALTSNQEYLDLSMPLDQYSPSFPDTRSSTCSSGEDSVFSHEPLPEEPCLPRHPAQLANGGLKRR
Serine/threonine-protein kinase Nek2, sequence (P51955 whole entry): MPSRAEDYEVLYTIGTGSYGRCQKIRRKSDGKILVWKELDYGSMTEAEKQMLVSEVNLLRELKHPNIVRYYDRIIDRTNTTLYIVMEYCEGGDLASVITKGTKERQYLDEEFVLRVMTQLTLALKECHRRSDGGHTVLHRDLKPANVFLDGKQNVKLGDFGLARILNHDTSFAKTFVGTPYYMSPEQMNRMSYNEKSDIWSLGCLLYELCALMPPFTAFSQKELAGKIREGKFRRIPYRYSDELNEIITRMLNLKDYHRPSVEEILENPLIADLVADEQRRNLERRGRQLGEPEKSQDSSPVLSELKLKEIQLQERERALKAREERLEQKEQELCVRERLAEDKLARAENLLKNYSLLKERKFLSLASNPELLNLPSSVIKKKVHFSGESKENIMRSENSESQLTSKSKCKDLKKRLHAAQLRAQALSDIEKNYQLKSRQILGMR
Ribosomal protein S6 kinase beta-1, sequence (P23443 whole entry): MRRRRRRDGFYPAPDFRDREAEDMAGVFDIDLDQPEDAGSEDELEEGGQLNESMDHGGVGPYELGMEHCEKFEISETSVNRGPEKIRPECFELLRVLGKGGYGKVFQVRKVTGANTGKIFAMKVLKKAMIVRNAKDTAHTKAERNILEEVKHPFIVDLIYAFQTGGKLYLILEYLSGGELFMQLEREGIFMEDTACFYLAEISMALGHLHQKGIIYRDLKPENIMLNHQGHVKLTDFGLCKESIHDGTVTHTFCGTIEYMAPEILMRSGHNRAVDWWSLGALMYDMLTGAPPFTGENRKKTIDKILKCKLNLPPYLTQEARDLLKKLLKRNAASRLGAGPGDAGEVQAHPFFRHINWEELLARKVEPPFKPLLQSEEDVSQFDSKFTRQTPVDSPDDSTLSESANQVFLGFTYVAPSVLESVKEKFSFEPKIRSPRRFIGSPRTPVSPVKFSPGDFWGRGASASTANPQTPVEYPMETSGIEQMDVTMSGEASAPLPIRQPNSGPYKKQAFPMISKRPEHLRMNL
Protein-tyrosine kinase 6, sequence (Q13882 whole entry): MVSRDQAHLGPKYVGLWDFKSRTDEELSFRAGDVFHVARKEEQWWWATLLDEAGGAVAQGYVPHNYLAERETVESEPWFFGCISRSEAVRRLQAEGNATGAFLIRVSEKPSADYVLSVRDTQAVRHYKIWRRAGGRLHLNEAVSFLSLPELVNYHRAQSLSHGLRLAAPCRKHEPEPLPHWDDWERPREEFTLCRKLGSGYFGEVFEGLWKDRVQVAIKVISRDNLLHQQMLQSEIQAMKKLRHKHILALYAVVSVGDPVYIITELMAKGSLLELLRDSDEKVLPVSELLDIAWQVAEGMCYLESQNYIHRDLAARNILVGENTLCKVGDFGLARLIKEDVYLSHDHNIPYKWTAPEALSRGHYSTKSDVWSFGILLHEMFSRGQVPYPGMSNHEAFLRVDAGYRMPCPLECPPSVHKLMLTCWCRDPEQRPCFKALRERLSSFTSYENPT

In general, EC50 refers to the concentration needed to bring the measured effect to its halfway point. What is called IC50 is the concentration that gives 50% inhibition. Turning to `CN(C)c1ncc(C2=C(Cl)C(=O)C(N3CCCC3)=C(Cl)C2=O)s1`, the EC50 with H4 was 34.1 µM (active). In addition, the IC50 in assay [1] was > 66.6 µM (inactive).
For `Cc1cnc(NC(=O)c2sc3ccccc3c2Cl)s1`, the EC50 in [2] is > 67.5 µM (inactive). The IC50 in assay [3] is > 67.5 µM (inactive).
As to `O=C1C(O)=C/C(=N\c2ccccc2O)c2ccccc21`, the EC50 in the assay with HEK293 [4] is 14.8 µM (active). For the same compound, the IC50 in the assay with HEK293 [5] is > 20 µM (inactive).
As usually defined, the Ki is the equilibrium dissociation constant of an inhibitor or competing ligand from its target. As for `O=C1NC(=S)SC1=C1C(=O)Nc2ccc(Br)cc21`, the inhibitory constant (Ki) was 251 nM (active) in assay [6]; > 6.31 µM (inactive) in [7]; > 2.51 µM (inactive) in [8]; 1.26 µM (active) in assay [9]; > 10 µM (inactive) in [10]; 6.31 µM (active) in assay [11]. Further, the Ki in assay [12] was > 2 µM (inactive); in [13], > 5.01 µM (inactive); in assay [14] it was > 6.31 µM (inactive); in assay [15], > 7.94 µM (inactive); in [16], > 5.01 µM (inactive); on Aurora kinase B, 2.51 µM (active). Moreover, the Ki in [17] was 631 nM (active); in assay [18], > 7.94 µM (inactive); in assay [19] it was > 631 nM (inactive); in assay [20] it was 3.16 µM (active); in [21], 3.16 µM (active).
As usually defined, the CC50 is the concentration giving 50% cytotoxicity. Consider `Cc1ccc(Nc2cc(C)nn2-c2nc(C)cc(O)n2)cc1`, for which the EC50 in assay [22] was > 32 µM (inactive). Moreover, the CC50 in the assay on HeLa was 7.59 µM (active).

The values are drawn from ChEMBL document CHEMBL1201862, “PubChem BioAssay data set” (2004).
